# Biological target: T1, GST-tagged ROR gamma ligand binding domain (LBD) (Homo sapiens, UniProt P51449)
# T1 construct: purchased Invitrogen
# T1 sequence (P51449 269-508 limits assumed): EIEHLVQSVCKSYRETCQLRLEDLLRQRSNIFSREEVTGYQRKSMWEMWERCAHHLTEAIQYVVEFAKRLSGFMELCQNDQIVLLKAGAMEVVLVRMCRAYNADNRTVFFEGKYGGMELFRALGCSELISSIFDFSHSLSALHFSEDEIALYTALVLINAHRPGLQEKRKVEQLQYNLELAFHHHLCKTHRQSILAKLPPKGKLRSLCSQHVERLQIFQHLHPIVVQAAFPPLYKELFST
# Test: TR-FRET assay for ROR gamma (LanthaScreen co-activator peptide recruitment)
# Type: biochemical
# Details: for inhibition at 1 µM: compound concentration 1 μM; for inhibition at 1 µM / inhibition at 10 µM: TR-FRET ratio 520/495, percent of control; for inhibition at 10 µM: compound concentration 10 μM; for IC50: from dose response curve, nonlinear regression, read-out: IC50 range
# Description: The compounds described herein were screened for ROR gamma modulator activity using the TR-FRET assay (LanthaScreen™ available from Invitrogen of Carlsbad, Calif.) as described in JBC 2011, 286, 26: 22707-10; and Drug Metabolism and Disposition 2009, 37, 10: 2069-78.
# Binding of the co-activator peptide, causes an increase in the TR-FRET signal while binding of an antagonist decreases the recruitment of the co-activator peptide, causing a decrease in the TR-FRET signal compared to control with no compound. The assay was performed using a two-step procedure, pre-incubation step with the compound followed by the detection step on addition of the anti-GST tagged terbium (Tb) and fluorescein tagged fluorophores as the acceptor.
# Test compounds or reference compounds such as T0901317 (Calbiochem) were dissolved in dimethylsulfoxide (DMSO) to prepare 10.0 mM stock solutions and diluted to the desired concentration. The final concentration of DMSO in the reaction was 4% (v/v). The assay mixture was prepared by mixing 10 nM of the GST-tagged ROR gamma ligand binding domain (LBD) in the assay buffer containing 25 mM HEPES (pH 7.4), 100 mM NaCl, 5 mM DTT and 0.01% BSA with or without the desired concentration of the compound. The reaction was incubated at 22° C. for 1 hour. The pre-incubation step was terminated by addition of the detection mixture containing 300 nM Fluorescein-D22 co-activator peptide and 10 nM lantha screen Tb-anti GST antibody into the reaction mixture.
# After shaking for 5 minutes the reaction was further incubated for 1 hour at room temperature and read at 4° C. on an Infinite F500 reader as per the kit instructions (Invitrogen). The inhibition of test compound was calculated based on the TR-FRET ratio of 520/495. The activity was calculated as a percent of control reaction. IC50 values were calculated from dose response curve by nonlinear regression analysis using GraphPad Prism software.
Structure (SMILES),inhibition at 1 µM,inhibition at 10 µM,IC50
"CCC(F)(F)c1ccc(CC(=O)Nc2ccc(-c3nccnc3-c3ccc(Cl)cc3)cc2F)cc1 [Example 26, N-(4-(3-(4-Chlorophenyl)pyrazin-2-yl)-2-fluorophenyl)-2-(4-(1,1-difluoropropyl)phenyl)acetamide]",71.9%,79.6%,100 to 500 nM
"CCC(F)(F)c1ccc(CC(=O)Nc2ccc(-c3nccnc3-c3ccc(OC)cc3)cc2)cc1 [Example 27, 2-(4-(1,1-Difluoropropyl)phenyl)-N-(4-(3-(4-methoxyphenyl)pyrazin-2-yl)phenyl)acetamide]",78.6%,83.5%,< 50 nM
"CCC(F)(F)c1ccc(CC(=O)Nc2ccc(-n3nc(C(F)(F)F)cc3-c3ccccc3Cl)cc2)cc1 [Example 29, N-(4-(5-(2-Chlorophenyl)-3-(trifluoromethyl)-1H-pyrazol-1-yl)phenyl)-2-(4-(1,1-difluoropropyl)phenyl)acetamide]",77.1%,79.8%,< 50 nM
"CCC(F)(F)c1ccc(CC(=O)Nc2ccc(-c3ncccc3-c3ccccc3Cl)cc2)cc1 [Example 30, N-(4-(3-(2-Chlorophenyl)pyridin-2-yl)phenyl)-2-(4-(1,1-difluoropropyl)phenyl)acetamide]",81.3%,82.5%,< 50 nM
CCC(F)(F)c1ccc(CC(=O)Nc2ccc(-c3nccnc3-c3ccccc3C)cc2)cc1 [Example 31],77.7%,81.7%,< 50 nM
"CCC(F)(F)c1ccc(CC(=O)Nc2ccc(-c3nccnc3N3CCN(C)CC3)cc2)cc1 [Example 32, 2-(4-(1,1-Difluoropropyl)phenyl)-N-(4-(3-(4-methylpiperazin-1-yl)pyrazin-2-yl)phenyl)acetamide]",15.3%,65.1%,
"CCN1CCN(c2nccnc2-c2ccc(NC(=O)Cc3ccc(C(F)(F)CC)cc3)cc2)CC1 [Example 33, 2-(4-(1,1-Difluoropropyl)phenyl)-N-(4-(3-(4-ethylpiperazin-1-yl)pyrazin-2-yl)phenyl)acetamide]",27.3%,75.8%,
"CCC(F)(F)c1ccc(CC(=O)Nc2ccc(-c3cccnc3-c3ccc(Cl)cc3)cc2)cc1 [Example 34, N-(4-(2-(4-Chlorophenyl)pyridin-3-yl)phenyl)-2-(4-(1,1-difluoropropyl)phenyl)acetamide]",57.9%,66.8%,
"CCC(F)(F)c1ccc(CC(=O)Nc2ccc(-c3cnccc3-c3ccc(Cl)cc3)cc2)cc1 [Example 35, N-(4-(4-(4-Chlorophenyl)pyridin-3-yl)phenyl)-2-(4-(1,1-difluoropropyl)phenyl)acetamide]",72.8%,73.3%,100 to 500 nM
"CCC(F)(F)c1ccc(CC(=O)Nc2ccc(-c3nccnc3N3C[C@@H](C)O[C@@H](C)C3)cc2)cc1 [Example 36, 2-(4-(1,1-Difluoropropyl)phenyl)-N-(4-(3-((25,6R)-2,6-dimethylmorpholino)pyrazin-2-yl)phenyl)acetamide]",2.6%,8.3%,
"CC(O)C(F)(F)c1ccc(CC(=O)Nc2ccc(-c3nccnc3-c3ccccc3Cl)cc2)cc1 (stereo not shown) [Example 37, N-(4-(3-(2-Chlorophenyl)pyrazin-2-yl)phenyl)-2-(4-(1,1-difluoro-2-hydroxypropyl)phenyl)acetamide]",71.1%,73.5%,< 50 nM
"CCC(F)(F)c1ccc(CC(=O)Nc2ccc(-n3nc(C)cc3-c3ccc(Cl)cc3Cl)cc2)cc1 [Example 38, N-(4-(5-(2,4-Dichlorophenyl)-3-methyl-1H-pyrazol-1-yl)phenyl)-2-(4-(1,1-difluoropropyl)phenyl)acetamide]",70.7%,74.9%,100 to 500 nM
"CC(O)C(F)(F)c1ccc(CC(=O)Nc2ccc(-c3nccnc3-c3ccc(F)cc3Cl)cc2)cc1 (stereo not shown) [Example 39, N-(4-(3-(2-Chloro-4-fluorophenyl)pyrazin-2-yl)phenyl)-2-(4-(1,1-difluoro-2-hydroxypropyl)phenyl)acetamide]",65.5%,72.8%,
"CCc1ccccc1-c1nccnc1-c1ccc(NC(=O)Cc2ccc(C(F)(F)C(C)O)cc2)cc1 (stereo not shown) [Example 40, 2-(4-(1,1-Difluoro-2-hydroxypropyl)phenyl)-N-(4-(3-(2-ethylphenyl)pyrazin-2-yl)phenyl)acetamide]",71.4%,76.9%,< 50 nM
"CCC(F)(F)c1ccc(CC(=O)Nc2ccc(-c3nccnc3N3CCN(CCOC)CC3)cc2)cc1 [Example 41, 2-(4-(1,1-Difluoropropyl)phenyl)-N-(4-(3(4-(2-methoxyethyl)piperazin-1-yl)pyrazin-2-yl)phenyl)acetamide]",4.2%,48.7%,
"CCC(F)(F)c1ccc(CC(=O)Nc2ccc(-c3nccnc3N3CCN(C(C)=O)CC3C)cc2)cc1 (stereo not shown) [Example 42, N-(4-(3-(4-Acetyl-2-methylpiperazin-1-yl)pyrazin-2-yl)phenyl)-2-(4-(1,1-difluoropropyl)phenyl)acetamide]",51.9%,76.1%,
"CCC(F)(F)c1ccc(CC(=O)Nc2ccc(-c3nccnc3-c3ccc(F)cc3C)cc2)cc1 [Example 44, 2-(4-(1,1-Difluoropropyl)phenyl)-N-(4-(3-(4-fluoro-2-methylphenyl)pyrazin-2-yl)phenyl)acetamide]",76.9%,84.1%,< 50 nM
"CCC(F)(F)c1ccc(CC(=O)Nc2ccc(-c3nccnc3-c3ccc(F)cc3Cl)cc2)cc1 [Example 45, N-(4-(3-(2-Chloro-4-fluorophenyl)pyrazin-2-yl)phenyl)-2-(4-(1,1-difluoropropyl)phenyl)acetamide]",81.1%,80.8%,< 50 nM
"CCC(F)(F)c1ccc(CC(=O)Nc2ccc(-c3ccncc3-c3ccc(Cl)cc3)cc2)cc1 [Example 46, N-(4-(3-(4-Chlorophenyl)pyridin-4-yl)phenyl)-2-(4-(1,1-difluoropropyl)phenyl)acetamide]",70%,77.1%,
"CCC(F)(F)c1ccc(CC(=O)Nc2ccc(-c3nccnc3-c3ccc(C)cc3C)cc2)cc1 [Example 47, 2-(4-(1,1-Difluoropropyl)phenyl)-N-(4-(3-(2,4-dimethylphenyl)pyrazin-2-yl)phenyl)acetamide]",82.3%,82.3%,< 50 nM
"CCC(F)(F)c1ccc(CC(=O)Nc2ccc(-c3nccnc3-c3ccc(C)cc3F)cc2)cc1 [Example 48, 2-(4-(1,1-Difluoropropyl)phenyl)-N-(4-(3-(2-fluoro-4-methylphenyl)pyrazin-2-yl)phenyl)acetamide]",79.2%,84.1%,< 50 nM
"CCC(F)(F)c1ccc(CC(=O)Nc2ccc(-c3nccc(=O)n3-c3ccc(F)cc3Cl)cc2)cc1 [Example 49, N-(4-(1-(2-Chloro-4-fluorophenyl)-6-oxo-1,6-dihydropyrimidin-2-yl)phenyl)-2-(4-(1,1-difluoropropyl)phenyl)acetamide]",84%,88.8%,< 50 nM
"CCC(F)(F)c1ccc(CC(=O)Nc2ccc(-c3nccnc3-c3ccc(Cl)cc3Cl)cc2)cc1 [Example 50, N-(4-(3-(2,4-Dichlorophenyl)pyrazin-2-yl)phenyl)-2-(4-(1,1-difluoropropyl)phenyl)acetamide]",83.2%,83%,< 50 nM
"Cc1ccc(-c2nccnc2-c2ccc(NC(=O)Cc3ccc(C(F)(F)C(C)O)cc3)cc2)c(C)c1 (stereo not shown) [Example 51, 2-(4-(1,1-Difluoro-2-hydroxypropyl)phenyl)-N-(4-(3-(2,4-dimethylphenyl)pyrazin-2-yl)phenyl)acetamide]",73.2%,81%,< 50 nM
"CCc1ccccc1-c1nccnc1-c1ccc(NC(=O)Cc2ccc(C(F)(F)[C@H](C)O)cc2)cc1 [Example 52, (S)-2-(4-(1,1-difluoro-2-hydroxypropyl)phenyl)-N-(4-(3-(2-ethylphenyl)pyrazin-2-yl)phenyl)acetamide]",78.6%,84%,< 50 nM

# From US10344024B2, “Compounds as ROR gamma modulators” (Glenmark Pharmaceuticals S.A., priority 2015, dated 2019)
